Experimental data from patent publication US20220273707A1, “COMPOSITIONS AND METHODS FOR TREATING CANINE PARVOVIRUS INFECTION” (MoxxiTech, LLC, priority 2021, published 2022).

Experiments:
Canine parvovirus (CPV) = test: Treatment of puppies naturally infected with CPV, standard veterinary protocol supplemented with oral ferric citrate solution; type: in vivo, dog; details: for survival rate: twice daily for up to five days, monitored for 14 days
Procedure: Puppies presenting with symptoms of CPV infection, including vomiting, diarrhea, hematochezia, lethargy, and depression, were tested for CPV infection using IDEXX Laboratories SNAP® Parvo Test per manufacturer's protocols.

[1] = system: Canine parvovirus type 2 (CPV2); test: Viability assay of canine fibroblast cells infected with CPV2 (trypan blue exclusion); type: cell-based; details: 72 hours post treatment; for cell viability after infection with CPV: added 1 hour after CPV2 infection
Procedure: (§1) Methods: Canine fibroblast cells were cultured in Dulbecco's modified Eagle's medium (DMEM) supplemented with 5% fetal bovine serum, 2 mM L-glutamine, 0.1 mM MEM non-essential amino acids, 1 mM sodium pyruvate, 0.05 mM 2-mercaptoethanol, 10 mM HEPES, 100 units/mL penicillin, and 100 mcg/mL streptomycin, at 38° C. with 5% CO2. Canine parvovirus type 2 (CPV2) was isolated from a fecal sample collected from a naturally infected dog. The virus was propagated on canine fibroblast cells and a titer of 10^13.37 tissue culture infectious doses (TCID50)/mL was used for viability assays. For viability assays, cells were routinely passaged and seeded in 96 well plates at 5×10^4 cells/mL in 200 μL complete DMEM media and incubated overnight at 38° C. with 5% CO2. The media was then removed and cells were infected with CPV2 for 1 hour at 38° C. with 5% CO2. […] A minimum of 3 independent experiments were performed for each assay.
72 hours post treatment, cells were assayed for viability. […] Data shown are Mean±SEM, pooled from three independent experiments.

Canine fibroblast cells = test: Viability of canine fibroblast cells in the absence of CPV infection (trypan blue exclusion); details: 1 μM, 72 hours
Procedure: as §1
Data shown are Mean±SEM, pooled from three independent experiments.

Question: For ferric citrate, which survival rate (Canine parvovirus (CPV); 0.22 mg/kg orally, 1/3) is on record?
Answer: 33.33%

Question: And the “mortality of the smallest puppies (<5 lbs)” value (Canine parvovirus (CPV); 0.22 mg/kg, lowest concentration tested)?
Answer: not able to prevent mortality

Question: And the survival rate (Canine parvovirus (CPV); 1.1 mg/kg orally, 2/5)?
Answer: 40%

Question: And the survival rate (Canine parvovirus (CPV); 2.2 mg/kg (highest concentration) orally, 5/5)?
Answer: 100%

Question: What about the “survival from natural infections with CPV with increasing concentrations” value (Canine parvovirus (CPV); increasing concentrations of ferric citrate (FIG. 3)) of the same compound?
Answer: increased survival

Question: And the “cell viability after infection with CPV” value ([1]; 1 μM)?
Answer: significant increase

Question: What about the “cell viability after infection with CPV” value ([1]; 10 μM) of the same compound?
Answer: significant increase

Question: `CC(=O)N(O)CCCCCNC(=O)CCC(=O)N(O)CCCCCNC(=O)CCC(=O)N(O)CCCCCN` [deferoxamine, reference compound] was tested. Which “viability of treated versus untreated cells in the absence of CPV infection” value (Canine fibroblast cells) did it give?
Answer: no significant difference

Question: And the “decrease in survival compared to cells infected with CPV” value ([1]; 1 μM, CPV-infected cells)?
Answer: 23%

Question: And the “decrease in survival compared to the untreated cells” value ([1]; 1 μM, CPV-infected cells)?
Answer: 45%
